Experimental data: patent publication US8779156B2, “Analogues for the treatment or prevention of flavivirus infections” (Vertex Pharmaceuticals Incorporated, priority 2010, dated 2014)

How the values were obtained:
[1] = tested on: sub-genomic HCV replicon of genotype 1a (cell line W11.8); assay: Activity determination using the ELISA and the sub-genomic replicon 1a cell line (NS5A protein level); type: cell-based; details: Hepatitis C virus
Excerpt: Activity Determination Using the ELISA and the Sub-Genomic Replicon 1a Cell Line
The cell line W11.8 containing the sub-genomic HCV replicon of genotype 1a is used to determine the potency of the drugs. The RNA replication in presence of different drug concentrations is indirectly measured in this cell line by the level of NS5A protein content upon drug treatment for four days. It is shown that the level of the NS5A protein correlates well with the level of HCV RNA in the replicon cell line. Cells are split twice a week in order to keep the confluence state below 85% of the culture flask surface area. The culture media used for cell passaging consists of DMEM-10% foetal bovine serum with 100 UI/mL penicillin, 100 μg/mL streptomycin, 2 mM glutamine, 1 mM sodium pyruvate, non-essential amino acids (1×) and 600 μg/mL of G418 final concentrations. Monolayer of the W11.8 cells is trypsinized and cells are counted. Cells are diluted at 50,000 cells/mL with complete DMEM without G418, then approximately 5,000 viable cells (100 μL) are plated per well in a white opaque 96-well microtiter plate. After an incubation period of 2-4 hours at 37° C. in a 5% CO2 incubator, compounds are added at various concentrations. Drugs are resuspended in DMSO at a stock concentration of 10 mM. Then, drugs are serially diluted at twice the final concentration in the same medium. One volume (100 μL) of each drug dilution is then added to each well that contains cells. A control compound is used as an internal standard for each plate assay. Sixteen wells are used as control (0% inhibition) without drug. […] Values from 100% inhibited wells were averaged and used as the background value. Cells are further incubated for four days at 37° C. in a 5% CO2 incubator. Following the incubation time of four days, the media is removed and wells are washed once with 150 μL of PBS at room temperature for five minutes. Cells are then fixed for five minutes using 150 μL per well of cold (−20° C.) fixative solution (50% methanol/50% acetone mix). Cells are then washed twice with 150 μL of PBS (phosphate buffered saline) per well, following the addition of 150 μL of blocking solution, cells are incubated for one hour at 37° C. to block non-specific sites. The blocking solution is removed and cells are washed twice with 150 μL of PBS per well and once with 150 μL of PBSTS solution (PBS/0.1% Triton X-100/0.02% SDS) per well. […] Then, substrate solution (100 μl, SuperSignal ELISA Pico Chemiluminescent Substrate, Fisher Cat. No. 37069) is added in each well and plates are incubated 60 minutes at room temperature prior to reading the luminescence (relative light units) on the Analyst HT plate reader. The percentage of inhibition at each drug concentration tested (in duplicate) is calculated.

[2] = tested on: HCV (1b) replicon, Huh-ET cells; assay: Cell-based luciferase reporter HCV (1b) RNA replication assay; details: Hepatitis C virus; for EC50: 96 h, HCV 1b replicon, luciferase, 4 days incubation, read-out: EC50_1b
Excerpt: Cell-Based Luciferase Reporter HCV (Ib) RNA Replication Assay Cell Culture
Replicon cell lines Huh-5.2 are derived from the Huh-7 hepatocarcinoma cell line are maintained in culture as generally described in Krieger, N; Lohmann, V; Bartenschlager, R. Enhancement of hepatitis C virus RNA replication by cell culture-adaptive mutations. J. Virol. 2001, 75, 4614-4624. The Huh-5.2 cells contain the highly cell culture-adapted replicon I389luc-ubi-neo/NS3-375.1 construct that carries, in addition to the neomycin gene, an integrated copy to the firefly luciferase gene (Krieger, N; Lohmann, V; Bartenschlager, R. Enhancement of hepatitis C virus RNA replication by cell culture-adaptive mutations. J. Virol. 2001, 75, 4614-4624). This cell line allows measurement of HCV RNA replication and translation by measuring luciferase activity. It has been previously shown that the luciferase activity tightly follows the replicon RNA level in these cells (Krieger, N; Lohmann, V; Bartenschlager, R. Enhancement of hepatitis C virus RNA replication by cell culture-adaptive mutations. J. Virol. 2001, 75, 4614-4624). The Huh-ET cell line has the same features as those mentioned for Huh-5.2 cell line, except that ET cells are more robust and contain an adaptative mutation in the HCV NS4B gene instead of NS5A. Both cell lines are maintained in cultures at a sub-confluent level (<85%) as the level of replicon RNA is highest in actively proliferating cells. The culture media used for cell passaging consist of DMEM (Gibco BRL Laboratories, Mississauga, ON, Canada) supplemented with 10% foetal bovine serum with 1% penicilin/streptomycin, 1% glutamine, 1% sodium pyruvate, 1% non-essential amino acids, and 180 μg/ml of G418 final concentration. Cells are incubated at 37° C., in an atmosphere of 5% CO2 and passaged twice a week to maintain sub-confluence.
Approximately 3000 viable Huh-ET cells (100 μl) are plated per well in a white opaque 96-well microtiter plate. The cell culture media used for the assay is the same as described above except that it contains no G418 and no phenol red. After an incubation period of 3-4 hours at 37° C. in a 5% CO2 incubator, compounds (100 μl) are added at various concentrations. Cells are then further incubated for 4 days at 37° C. in a 5% CO2 incubator. Thereafter, the culture media is removed and cells are lysed by the addition of 95 μL of the luciferase buffer (luciferin substrate in buffered detergent). Cell lysates are incubated at room temperature and protected from direct light for at least 10 minutes. Plates are read for luciferase counts using a luminometer (Wallac MicroBeta Trilux, Perkin Elmer™, MA, USA).
Curves are fitted to data points using nonlinear regression analysis, and IC50s are interpolated from the resulting curve using GraphPad Prism software, version 2.0 (GraphPad Software Inc., San Diego, Calif., USA).

COC(=O)N[C@H](C(=O)N1CCC[C@H]1c1ncc(-c2ccc(-c3ccc(-c4ccc5[nH]c([C@@H]6CCCN6C(=O)[C@@H](NC(=O)OC)C(C)C)nc5c4)cc3)cc2)[nH]1)C(C)C [Compound 4, ((S)-1-{(S)-2-[5-(4′-{2-[(S)-1-((S)-2-Methoxycarbonylamino-3-methyl-butyryl)-pyrrolidin-2-yl]-3H-benzoimidazol-5-yl}-biphenyl-4-yl)-1H-imidazol-2-yl]-pyrrolidine-1-carbonyl}-2-methyl-propyl)-carbamic acid methyl ester]
IC50 [1]: 140 pM
EC50 [2]: ≤ 5 nM
IC50 ([2]; sub-genomic replicon 1b cell line): 13 pM

COC(=O)N[C@H](C(=O)N1C[C@@H](C)CC1c1nc2cc(C#Cc3ccc(C#Cc4cnc([C@@H]5C[C@H](C)CN5C(=O)[C@@H](NC(=O)OC)C(C)C)[nH]4)cc3)ccc2[nH]1)C(C)C (stereo partly shown) [Compound 29]
EC50 [2]: ≤ 5 nM

COC(=O)N[C@H](C(=O)N1C[C@@H](C)C[C@H]1c1nc(-c2ccc(-c3ccc(-c4ccc5[nH]c([C@@H]6C[C@H](C)CN6C(=O)[C@@H](NC(=O)OC)C(C)C)nc5c4)c4c3OCO4)cc2)c[nH]1)C(C)C [Compound 30]
EC50 [2]: ≤ 5 nM

COC(=O)N[C@H](C(=O)N1C[C@@H](C)C[C@H]1c1ncc(-c2ccc(-c3ccc(-c4ccc5[nH]c([C@@H]6C[C@H](C)CN6C(=O)[C@@H](NC(=O)OC)C(C)C)nc5c4)c(C)c3)cc2C)[nH]1)C(C)C [Compound 31]
EC50 [2]: ≤ 5 nM

COC(=O)N[C@H](C(=O)N1C[C@@H](C)C[C@H]1c1nc(-c2ccc(-c3ccc(-c4cc(F)c5[nH]c([C@@H]6C[C@H](C)CN6C(=O)[C@@H](NC(=O)OC)C(C)C)nc5c4)cc3)cc2)c[nH]1)C(C)C [Compound 32]
EC50 [2]: ≤ 5 nM

COC(=O)N[C@H](C(=O)N1C[C@@H](C)C[C@H]1c1nc(-c2ccc3sc(-c4ccc5[nH]c([C@@H]6C[C@H](C)CN6C(=O)[C@@H](NC(=O)OC)C(C)C)nc5c4)cc3c2)c[nH]1)C(C)C [Compound 33]
EC50 [2]: ≤ 5 nM

COC(=O)N[C@H](C(=O)N1C[C@@H](C)C[C@H]1c1nc(-c2ccc3nc(-c4ccc5[nH]c([C@@H]6C[C@H](C)CN6C(=O)[C@@H](NC(=O)OC)C(C)C)nc5c4)ccc3c2)c[nH]1)C(C)C [Compound 34]
EC50 [2]: ≤ 5 nM

COC(=O)N[C@H](C(=O)N1C[C@@H](C)C[C@H]1c1nc(-c2ccc(-c3ccc(-c4cc5nc([C@@H]6C[C@H](C)CN6C(=O)[C@@H](NC(=O)OC)C(C)C)[nH]c5cc4C)cc3)cc2)c[nH]1)C(C)C [Compound 35]
EC50 [2]: ≤ 5 nM

COC(=O)N[C@H](C(=O)N1C[C@@H](C)C[C@H]1c1nc(-c2ccc(-c3ccc(-c4ccc5[nH]c([C@@H]6C[C@H](C)CN6C(=O)[C@@H](NC(=O)OC)C(C)C)nc5c4)cc3F)cc2)c[nH]1)C(C)C [Compound 39]
EC50 [2]: ≤ 5 nM

COC(=O)N[C@H](C(=O)N1C[C@@H](C)C[C@H]1c1nc(-c2cc3sc(-c4ccc5[nH]c([C@@H]6C[C@H](C)CN6C(=O)[C@H](C(C)C)N6CCOC6=O)nc5c4)cc3s2)c[nH]1)C(C)C [Compound 40]
EC50 [2]: ≤ 5 nM

COC(=O)N[C@H](C(=O)N1C[C@@H](C)C[C@H]1c1nc(-c2ccc3cc(-c4ccc5[nH]c([C@@H]6C[C@H](C)CN6C(=O)[C@@H](NC(=O)OC)C(C)C)nc5c4)sc3c2)c[nH]1)C(C)C [Compound 41]
EC50 [2]: ≤ 5 nM

COC(=O)N[C@H](C(=O)N1C[C@@H](C)CC1c1nc2cc(-c3ccc4nc(-c5c[nH]c([C@@H]6C[C@H](C)CN6C(=O)[C@@H](NC(=O)OC)C(C)C)n5)cn4c3)ccc2[nH]1)C(C)C (stereo partly shown) [Compound 42]
EC50 [2]: 5 to 5000 nM

COC(=O)N[C@H](C(=O)N1C[C@@H](C)C[C@H]1c1nc(-c2cc3cc(-c4ccc5[nH]c([C@@H]6C[C@H](C)CN6C(=O)[C@@H](NC(=O)OC)C(C)C)nc5c4)sc3s2)c[nH]1)C(C)C [Compound 43]
EC50 [2]: ≤ 5 nM

COC(=O)N[C@H](C(=O)N1C[C@@H](C)C[C@H]1c1nc(C#Cc2cc3sc(-c4ccc5[nH]c([C@@H]6C[C@H](C)CN6C(=O)[C@@H](NC(=O)OC)C(C)C)nc5c4)cc3s2)c[nH]1)C(C)C [Compound 44]
EC50 [2]: ≤ 5 nM

COC(=O)NC(C(=O)N1C[C@@H](C)C[C@H]1c1nc2cc(C#Cc3cc4sc(-c5c[nH]c([C@@H]6C[C@H](C)CN6C(=O)[C@@H](NC(=O)OC)C(C)C)n5)cc4s3)ccc2[nH]1)C(C)C (stereo partly shown) [Compound 45]
EC50 [2]: ≤ 5 nM

COC(=O)N[C@H](C(=O)N1C[C@H](C)C[C@H]1c1nc(-c2ccc(-c3ccc(-c4ccc5[nH]c([C@@H]6C[C@H](C)CN6C(=O)[C@@H](NC(=O)OC)C(C)C)nc5c4)cc3)cc2)c[nH]1)C(C)C [Compound 47]
EC50 [2]: ≤ 5 nM

COC(=O)N[C@H](C(=O)N1C[C@@H](C)C[C@H]1c1nc2cc(-c3ccc(-c4ccc(-c5c[nH]c([C@@H]6C[C@H](C)CN6)n5)cc4)cc3)ccc2[nH]1)C(C)C [Compound 51]
EC50 [2]: ≤ 5 nM

[2H]c1c([2H])c(-c2ccc3[nH]c([C@@H]4C[C@H](C)CN4C(=O)[C@@H](NC(=O)OC)C(C)C)nc3c2)c([2H])c([2H])c1-c1ccc(-c2c[nH]c([C@@H]3C[C@H](C)CN3C(=O)[C@@H](NC(=O)OC)C(C)C)n2)cc1 [Compound 52]
EC50 [2]: ≤ 5 nM

COC(=O)N[C@H](C(=O)N[C@H](C(=O)N1C[C@@H](C)C[C@H]1c1nc(-c2ccc(-c3ccc(-c4ccc5[nH]c([C@@H]6C[C@H](C)CN6C(=O)[C@@H](NC(=O)OC)C(C)C)nc5c4)cc3)cc2)c[nH]1)C(C)C)C(C)C [Compound 55]
EC50 [2]: ≤ 5 nM

COC(=O)N[C@H](C(=O)N[C@H](C(=O)N1C[C@@H](C)C[C@H]1c1nc2cc(-c3ccc(-c4ccc(-c5c[nH]c([C@@H]6C[C@H](C)CN6C(=O)[C@@H](NC(=O)OC)C(C)C)n5)cc4)cc3)ccc2[nH]1)C(C)C)C(C)C [Compound 56]
EC50 [2]: ≤ 5 nM
